Assay results taken from patent EP0612246B1, “PHARMACEUTICAL COMPOSITIONS OF GALLIUM COMPLEXES OF 3-HYDROXY-4-PYRONES” (BERNSTEIN, Lawrence Richard, priority 1991, dated 1993).
Values belong to the molecule of their own block, whether it stands above or below them.

Legend:
[1] = Oral bioavailability study in rabbits: serum gallium by graphite furnace atomic absorption after oral gavage; format: in vivo, New Zealand white rabbits; conditions: for Mean gallium content of rabbit serum: 10 mg elemental gallium per kg, fasted 18 hours, 3 animals
Description: A test of the oral bioavailability of the 3:1 ethyl maltol:gallium complex in rabbits was conducted. In this test, the complex was given to rabbits and compared to a solution of gallium nitrate. Six female New Zealand white rabbits weighing between 2.68 and 2.91 kg were used, and were not fed for 18 hours before starting the experiment. A suspension of the 3:1 gallium ethyl maltol complex in double distilled water was prepared with a concentration of 10 mg elemental gallium per 4 ml of suspension. […] A small amount of solid sodium carbonate was added to the latter solution to bring the pH up to about 6. Each of the two solutions was given to three rabbits by oral gavage (through a tube inserted through the mouth to the stomach) in the amount of 4 ml per kg of body weight. The stomach tubes were flushed by three ml of water following administration of the solutions.
Six ml of blood was taken from each rabbit at 1 hour, 2 hours, 4 hours, 8 hours, and 24 hours following administration of the solutions, and the serum separated and frozen. Control samples of blood were taken 24 hours earlier. The frozen serum samples were then sent to an independent testing laboratory for determination of the gallium contents by graphite furnace atomic absorption analysis. The testing laboratory received numbered serum samples, and never had any knowledge of the experimental conditions used to produce the samples. Due to uncertainties in the analytical procedures for gallium in serum, the relative proportions of gallium in the serum samples are considered more significant than the actual reported concentrations.
It is important to note that no attempt was made to counteract the adverse effects of the 3:1 gallium ethyl maltol complex being exposed to the acidic conditions of the stomach. This study should therefore be considered to give a minimal value for the oral bioavailability of the gallium ethyl maltol complex compared to gallium nitrate.

[2] = format: physicochemical
Description: The stability of the neutral 3:1 maltol:gallium complex was studied in aqueous solutions at various pH values. The complex was studied at two concentrations in double distilled deionized water: 2.5 X 10^-6 M and 1.0 X 10^-2 M. The pH was adjusted by adding either 1N HCl or 1N Na2CO3. The stability of the complex was determined using ultraviolet spectroscopy over the region 200-450 nm at 25°C. Several absorption peaks are observed in this range, including those at about 212-217 nm, 248 nm, 273 nm, 318 nm, and 385 nm. An isobesic point occurs over much of the pH range at about 290 nm. In the very dilute solutions (2.5 X 10^-6 M), the neutral 3:1 complex appears to be stable from about pH 4.5 to 9.5. For the less dilute solutions (1.0 X 10^-2 M), the determination was more difficult due to the very high absorbance.

- absorption compared to gallium nitrate of equal volume and gallium concentration ([1]; rabbit, in vivo, po): significantly higher amounts
Molecule: CCc1occc(=O)c1[O][Ga]([O]c1c(CC)occc1=O)[O]c1c(CC)occc1=O [gallium ethyl maltol]

Molecule: Cc1occc(=O)c1[O-].Cc1occc(=O)c1[O-].Cc1occc(=O)c1[O-].[Ga+3] [gallium maltol]
- stability region (pH) [2]: very similar to that of the highly dilute solution, possibly slightly wider

Molecule: gallium nitrate
- Mean gallium content of rabbit serum ([1]; 1 hour after oral gavage): 51 ng/mL
- Mean gallium content of rabbit serum ([1]; 2 hours after oral gavage): 99 ng/mL
- Mean gallium content of rabbit serum ([1]; 4 hours after oral gavage): 118 ng/mL
- Mean gallium content of rabbit serum ([1]; 8 hours after oral gavage): 103 ng/mL
- Mean gallium content of rabbit serum ([1]; 24 hours after oral gavage): 64 ng/mL
